Assay results reported in patent US10597398B2, “Suppression and regeneration promoting effect of low molecular weight compound on cancer and fibrosis” (NATIONAL UNIVERSITY CORPORATION TOTTORI UNIVERSITY, priority 2015, dated 2020).

Columns and labels:
Wnt/β-catenin signaling = experiment: Inhibitory effect on Wnt/β-catenin signaling in mesenchymal stem cells (E7-TCF4 luciferase); format: cell-based, human; conditions: concentration equal to or lower than that of IC-2
Protocol: A pTCF4-CMVpro-GL4.20 plasmid vector, having 3 copies of TCF4 motifs (CCT TTG ATC) upstream of aCMV promoter in a multiple cloning site of pGL4.20 (Promega Corp., Fitchburg, Wis.), was linearized and stably transfected into UE7T-13 cells to prepare E7-TCF4 cells. Also, a pCMVpro-GL4.20 plasmid vector, having a CMV promoter in a multiple cloning site of pGL4.20, was linearized and stably transfected into UE7T-13 cells. The resulting stable cells (E7-CMV cells) were cultured, like UE7T-13 cells, in 10% FBS/DMEM containing 0.25 μg/mL puromycin.
UE7T-13 cells were used to measure Wnt/β-catenin signaling activity. The concentrations of the respective compounds were as described in FIG. 42. Each control sample used was 0.1% DMSO, a solvent for each compound.
First, 70 to 90% confluent E7-TCF4 cells and E7-CMV cells were harvested and seeded (n=3) at 1.6758×10^4 cells/well of a 24-well plate (9.0×10^3 cells/cm^2). One day after that, each compound was added to the cells and the mixture was cultured at 37° C. Day 4 after the compound addition, the culture medium was changed.
At day 1, 4, or 8 after the compound treatment, the culture medium was discarded, and 100 μL of room temperature 5×Passive Lysis Buffer (PLB), which had been diluted 5-fold with MilliQ water, was added to each well. Next, the plate was shaken at room temperature for 15 min and was then frozen at −30° C. overnight. A Luciferase Assay Substrate was diluted with 10 mL of room temperature Luciferase Assay Buffer II to prepare Luciferase Assay Reagent II (LARII). The frozen PLB lysate samples were thawed and permeabilized for 15 min. Then, 10 μL aliquots were added to wells of a 96-well white plate. While 50 μL aliquots of LARII were each added to each well, luminescence was quantified by using a 1420 multi-label counter ARVO MX to determine firefly luciferase activity.

HuH-7 cells = experiment: Growth inhibitory effect on cancer cells (WST assay), Example 6.3; format: cell-based, human
Protocol: HuH-7 cells, a human liver cancer cell line, were cultured on 10-cm cell culture dishes (TPP Techno Plastic Products AG, Trasadingen, Switzerland) by using DMEM under conditions at 5% CO2, 37° C., and 100% humidity. When the cells were 70 to 90% confluent, 200 μL of 0.25% Trypsin/1 mM EDTA solution, which had been prepared by diluting the stock solution 10-fold with PBS (−), was added to detach the cells. Then, the cells were centrifuged at 1000 rpm for 3 min at room temperature. The cells recovered were subcultured at a 1:4 split ratio.
First, 70 to 90% confluent HuH-7 cells were harvested and seeded (n=3) at 1×10^4 cells/well of a 96-well plate (TPP). After 24 h, IC-2 was added to the cells and the mixture was cultured at 37° C. Each control sample (0 μM) used was 1% DMSO, a solvent for each compound. The concentrations of IC-2 used were 0, 1, 5, 10, 25, and 50 μM
Next, day 4 after the IC-2 treatment, 100 μL of DMEM-diluted 10% Cell Counting Kit-8 (DOJINDO LABORATORIES, Kumamoto) was added. The mixture was incubated at 37° C. for 60 min and its absorbance (at a measurement wavelength of 450 nm/control wavelength of 600 nm) was measured by using a Sunrise Rainbow RC (Tecan Group Ltd., Mannedorf, Switzerland). Absorbance for the cells alone was calculated by subtracting, from the reading obtained, absorbance for 10% Cell Counting Kit-8 alone. […]

[1] = Liver cancer model mouse, body weight; format: in vivo, mice; conditions: 30 mg/kg 5-FU or 50 mg/kg IC-2 intraperitoneally every three days
Protocol: CD44-positive HuH-7 cells were subcutaneously transplanted in mice. Next, the engrafted mice were divided into 3 groups (DMSO group: 5 mice; 5-FU group: 4 mice; and IC-2 group: 4 mice). Then, DMSO was added to prepare 30 mg/kg of 5-FU and 50 mg/kg of IC-2 such that each liquid volume was 100 μL; and 100% DMSO, a solvent for each drug, was used as a control sample. Subsequently, each drug was dosed intraperitoneally every three days. The body weight of each mouse and the long and short diameters of a tumor were measured every three days. The tumor volume was calculated by using the following equation: Tumor volume=Long diameter×(Short diameter)^2×0.5. The volume at Day 0 was used to normalize each tumor volume, and then a graph was created. To fully evaluate a 5-FU effect, the 5-FU dose was set to an amount 2 times the regular amount 15 mg/kg used in research articles. The concentration of IC-2 corresponding to a concentration at which Wnt/β-catenin signaling was inhibited in vitro was calculated. Then, the concentration was doubled to set an IC-2 dose.

[2] = test system: HSC2 cells (squamous cell carcinoma cells); experiment: Growth of squamous cell carcinoma cells (Cell Counting Kit-8); format: cell-based; conditions: HSC2 cells, 0, 24, 72, 96 h
Protocol: HSC2 cells (squamous cell carcinoma cells) were seeded at 2.5×10^3 cells/well of a 96-well plate (TPP Techno Plastic Products AG, Trasadingen, Switzerland). Next, 0, 24, 72, and 96 h after that, 100 μL of 10% Cell Counting Kit-8 (DOJINDO LABORATORIES, Kumamoto) was added. The mixture was incubated at 37° C. and its absorbance (at a measurement wavelength of 450 nm/control wavelength of 600 nm) was measured by using a Sunrise Rainbow RC (Tecan Group Ltd., Mannedorf, Switzerland).

Wnt/β-catenin signal = conditions: as described in Patent Literature 1; cited from earlier work

Row | SMILES | inhibitory effect on Wnt/β-catenin signaling pathway in mesenchymal stem cells compared with IC-2 (Wnt/β-catenin signaling) | growth of HuH-7 cells (HuH-7 cells; day 4) | IC50 (HuH-7 cells; day 4, 0-50 μM, control 1% DMSO) [µM] | body weight [1] | growth inhibitory effect on squamous cell carcinoma cells [2] | Wnt/β-catenin signal in a mesenchymal stem cell and differentiation into hepatocytes (Wnt/β-catenin signal)
1 | COc1ccc(COc2ccc(CNC(=O)N3CCC(=O)N4C(Cc5ccccc5)C(=O)N(Cc5cccc6ccccc56)CC34)cc2)cc1 (stereo not drawn) [IC-2-OPMB] | more potent inhibitory effect |  |  |  |  | 
2 | O=C1C(Cc2ccccc2)N2C(=O)CCN(C(=O)NCc3ccccc3)C2CN1Cc1cccc2ccccc12 (stereo not drawn) [IC-2] |  | inhibited the growth of HuH-7 cells | 25.9 | no change in the body weight | exhibited a growth inhibitory effect | inhibit a Wnt/β-catenin signal in a mesenchymal stem cell, thereby inducing differentiation of the mesenchymal stem cell into hepatocytes
